Experiments:
CPS1 [1] = assay: RNA-seq of compound-treated primary human hepatocytes, CPS1 expression; type: cell-based
OTC [2] = assay: RNA-seq of compound-treated primary human hepatocytes, OTC expression; type: cell-based; settings: for Relative OTC level vs Untreated (±Standard Deviation): primary human hepatocytes, triplicate (Table 14)
ARG1 = assay: RNA-seq of compound-treated primary human hepatocytes, ARG1 expression; type: cell-based
SLC25A15 = assay: RNA-seq of compound-treated primary human hepatocytes, SLC25A15 expression; type: cell-based; settings: for Relative SLC25A15 level vs Untreated (±Standard Deviation): primary human hepatocytes, triplicate (Table 24, FIG. 16A-B)
ASS1 = assay: RNA-seq of compound-treated primary human hepatocytes, ASS1 expression; type: cell-based; settings: for Relative ASS1 level vs Untreated (±Standard Deviation): primary human hepatocytes
urea cycle genes = assay: RNA-seq of primary human hepatocytes, compounds that modulate multiple urea cycle-related genes; type: cell-based; settings: primary human hepatocytes, RNA-seq
Protocol: To identify small molecules that modulate urea cycle enzymes, primary human hepatocytes were prepared as a monoculture, and at least one small molecule compound was applied to the cells.
RNA-seq was performed to determine the effects of the compounds on the expression of urea cycle enzymes in hepatocytes. Fold change was calculated by dividing the level of expression in the cell system that had been perturbed by the level of expression in an unperturbed system. Changes in expression having a p-value ≤0.05 were considered significant.
Significance was defined as an FPKM ≥1, a log 2 (fold change) ≥0.5, and a q-value of ≤0.05 for selected gene target.

ASL = assay: RNA-seq of compound-treated primary human hepatocytes, ASL expression; type: cell-based; settings: for Relative ASL level vs Untreated (±Standard Deviation): triplicate (Table 25, FIG. 17)
OTC [3] = assay: siRNA knockdown of JAK/STAT/IRF genes in hepatocytes, OTC mRNA; type: cell-based, human; settings: 10 nM siRNA plus 0.03 nM JAK1 siRNA, FIG. 27C
Text: To confirm that JAK1 inhibition is necessary for OTC and CPS1 gene expression increase, JAK1, JAK2, and JAK3 expression was knocked down using the siRNA methods previously described in Example 1 (JAK1 siRNA Dharmacon #M-003145-02-0005; JAK2 siRNA Dharmacon #M-003146-02-0005; JAK3 siRNA Dharmacon #M-003147-01-0005). The cells were harvest for mRNA collection and quantification as previously described.
In addition, STAT5B is a JAK1 signal transducer and transcription factor activated by JAK1. STAT5B was knocked down in hepatocytes using siRNA (Dharmacon cat #M-010539-02-0005) as previously described in Example 1. The cells were harvest for mRNA collection and quantification as previously described.
To confirm the role of JAK1 and investigate the role of other signaling proteins and transcription factors in OTC and CPS1 expression, a panel of additional genes were knocked down with siRNA alone or in combination with JAK1. In particular, JAK2 was knockdown alone or in combination with JAK1. The combinations are shown in FIG. 26A and FIG. 26B. siRNA used to knock down JAK1 and JAK2 were: JAK1 siRNA Dharmacon #M-003145-02-0005; JAK2 siRNA Dharmacon #M-003146-02-0005. OTC and CPS1 mRNA expression was normalized to B2M. The assay was performed in triplicate in three donor hepatocyte cell lines: 371, 171, and 511A.
Cells were harvested after siRNA treatment for mRNA quantification. JAK1, OTC, and CPS1 mRNA levels were normalized to GUSB.

CPS1 [4] = assay: JAK1 inhibitor dose titration in hepatocytes of donors A and B, CPS1 mRNA normalized to B2M; type: cell-based, human; settings: for CPS1 mRNA FC, Donor A / CPS1 mRNA FC, Donor B: normalized to B2M
Protocol: (§1) Next, two JAK1 inhibitors were tested at increasing concentrations in a dose titration assy. Hepatocytes from two different donors (A and B) were incubated with the various concentrations of upadacitinib or oclacitinib maleate and harvested for mRNA analysis. OTC and CPS1 mRNA were normalized to house keeping gene B2M gene expression.

OTC [5] = assay: JAK1 inhibitor dose titration in hepatocytes of donors A and B, OTC mRNA normalized to B2M; type: cell-based, human; settings: for OTC mRNA FC, Donor A / OTC mRNA FC, Donor B: normalized to B2M
Protocol: as §1

OTC [6] = assay: JAK inhibitors at 0.3 and 3 μM in primary human hepatocytes, OTC mRNA fold change; type: cell-based; settings: fold change vs DMSO
Protocol: (§2) Additional small molecules that inhibit JAK1, JAK2, JAK3, or a combination of the JAK proteins were tested in primary human hepatocytes as described in Example 2. JAK inhibitors were tested in triplicate at 0.3 μM and 3 μM. The results are shown as the fold change (mRNA FC) in the mRNA levels of OTC and CPS1 genes after treatment compared to an untreated control (DMSO) and the standard deviation (SD).

[7] = tested on: chromatin domain upstream of the OTC gene; assay: ATAC-seq of the OTC insulated neighborhood in inhibitor-treated hepatocytes; settings: 17 hours of inhibitor treatment
Protocol: Hepatocytes were seeded overnight, then the serum and other factors were removed. After 2-3 hours, the cells were treated with the compound and incubated overnight. The cells were harvested and the nuclei were prepared for the transposition reaction. […] After 9-12 cycles of PCR amplification, libraries were sequenced on an Illumina HiSeq 2000. PCR was performed using barcoded primers with extension at 72° C. for 5 minutes, PCR, then the final PCR product was sequenced.
All obtained reads from each sample were trimmed using trim galore 0.4.1 requiring Phred score ≥20 and read length ≥30 for data analysis. The trimmed reads were mapped against the human genome (hg19 build) using Bowtie2 (version 2.2.9) with the parameters: -t -q -N 1 -L 25 -X 2000 no-mixed no-discordant. All unmapped reads, non-uniquely mapped reads and PCR duplicates were removed. All the ATAC-seq peaks were called using MACS2 with the parameters --nolambda -nomodel -q 0.01 --SPMR. The ATAC-seq signal was visualized in the UCSC genome browser. ATAC-seq peaks that were at least 2 kb away from annotated promoters (RefSeq, Ensemble and UCSC Known Gene databases combined) were selected as distal ATAC-seq peaks.
The ATAC-seq experiment was done in triplicate.

CPS1 [8] = assay: JAK inhibitors at 0.3 and 3 μM in primary human hepatocytes, CPS1 mRNA fold change; type: cell-based; settings: fold change vs DMSO
Protocol: as §2

[9] = Example 11, relative mRNA vs DMSO
[10] = primary human hepatocytes, RNA-seq
[11] = both donor cell lines (A and B)

In the case of `Cc1cc(-c2nc(-c3ccc(OC(F)(F)F)cc3)no2)nn1Cc1ccnc(N2CCN(C3CC3)CC2)c1` [BAY 87-2243], the “Relative CPS1 level vs Untreated (±Standard Deviation)” value (CPS1 [1]; 0.3 uM, primary human hepatocytes, triplicate (Table 20, FIG. 12)) is reported as 3.32 ± 0.53, the “Relative CPS1 level vs Untreated (±Standard Deviation)” value (CPS1 [1]; 1 uM, primary human hepatocytes, triplicate (Table 20, FIG. 12)) is reported as 5.11 ± 1.08 and the “Relative CPS1 level vs Untreated (±Standard Deviation)” value (CPS1 [1]; 3 μM, primary human hepatocytes, triplicate (Table 19, FIG. 11)) is reported as 1.41 ± 0.06. The “Relative CPS1 level vs Untreated (±Standard Deviation)” value (CPS1 [1]; 3 uM, primary human hepatocytes, triplicate (Table 20, FIG. 12)) was 5.48 ± 3.12, the “Relative CPS1 level vs Untreated (±Standard Deviation)” value (CPS1 [1]; 10 uM, primary human hepatocytes, triplicate (Table 20, FIG. 12)) was 5.69 ± 2.90 and the “increase in CPS1 gene expression (Tables 19, 20, FIG. 11, 12)” value (CPS1 [1]; [9]) was “greatest increase”. For the same compound, the “CPS1 expression, Fold change (Log 2) vs untreated” value (CPS1 [1]; [10]) was 1.81 Log 2, the “Relative OTC level vs Untreated (±Standard Deviation)” value (OTC [2]; 0.3 uM) was 3.33 ± 0.60 and the “Relative OTC level vs Untreated (±Standard Deviation)” value (OTC [2]; 1 uM) was 5.61 ± 3.28. For the same compound, the “Relative OTC level vs Untreated (±Standard Deviation)” value (OTC [2]; 3 uM) was 7.03 ± 3.84, the “Relative OTC level vs Untreated (±Standard Deviation)” value (OTC [2]; 10 uM) was 6.18 ± 1.58 and the “increase in OTC gene expression (Table 14, FIG. 6)” value (OTC [2]; [9]) was “greatest increase”. The “Relative ARGI level vs Untreated (±Standard Deviation)” value (ARG1; 0.3 μM, primary human hepatocytes, triplicate (Table 17, FIG. 9)) was 1.36 ± 0.43, the “Relative ARGI level vs Untreated (±Standard Deviation)” value (ARG1; 1 μM, primary human hepatocytes, triplicate (Table 17, FIG. 9)) was 1.98 ± 0.29 and the “Relative ARGI level vs Untreated (±Standard Deviation)” value (ARG1; 3 μM, primary human hepatocytes, triplicate (Table 17, FIG. 9)) was 2.06 ± 0.19. The “Relative ARGI level vs Untreated (±Standard Deviation)” value (ARG1; 10 μM, primary human hepatocytes, triplicate (Table 17, FIG. 9)) was 2.03 ± 0.28, the “Relative ARGI level vs Untreated (±Standard Deviation)” value (ARG1; 10 uM, primary human hepatocytes, triplicate (Table 18, FIG. 10)) was 5.64 ± 3.44 and the “increase in ARG1 gene expression (Tables 17, 18, FIG. 9, 10)” value (ARG1; [9]) was “greatest increase”. For the same compound, the “Fold change (Log 2) vs untreated, ARG1 expression” value (ARG1; primary human hepatocytes, RNA-seq (Table 7)) was 1.09 Log 2, the “Relative SLC25A15 level vs Untreated (±Standard Deviation)” value (SLC25A15; 0.3 μM) was 2.85 ± 0.23 and the “Relative SLC25A15 level vs Untreated (±Standard Deviation)” value (SLC25A15; 1 μM) was 2.40 ± 0.22. The “Relative SLC25A15 level vs Untreated (±Standard Deviation)” value (SLC25A15; 3 μM) was 2.89 ± 0.37, the “Relative SLC25A15 level vs Untreated (±Standard Deviation)” value (SLC25A15; 10 μM) was 2.70 ± 0.19 and the “Increase in SLC25A15 gene expression (qualitative)” value (SLC25A15; [9]) was “greatest increase”. The “Relative ASS1 level vs Untreated (±Standard Deviation)” value (ASS1; 0.3 μM, triplicate (Table 15, FIG. 7)) was 2.79 ± 0.22, the “Relative ASS1 level vs Untreated (±Standard Deviation)” value (ASS1; 0.3 uM, triplicate (Table 15, FIG. 8)) was 2.11 ± 0.33 and the “Relative ASS1 level vs Untreated (±Standard Deviation)” value (ASS1; 1 μM, triplicate (Table 15, FIG. 7)) was 3.10 ± 0.47. The “Relative ASS1 level vs Untreated (±Standard Deviation)” value (ASS1; 01 uM, triplicate (Table 15, FIG. 8)) was 2.61 ± 0.57, the “Relative ASS1 level vs Untreated (±Standard Deviation)” value (ASS1; 3 μM, triplicate (Table 15, FIG. 7)) was 2.38 ± 0.01 and the “Relative ASS1 level vs Untreated (±Standard Deviation)” value (ASS1; 03 uM, triplicate (Table 15, FIG. 8)) was 2.87 ± 1.80. For the same compound, the “Relative ASS1 level vs Untreated (±Standard Deviation)” value (ASS1; 10 μM, triplicate (Table 15, FIG. 7)) was 2.99 ± 0.36, the “Relative ASS1 level vs Untreated (±Standard Deviation)” value (ASS1; 10 uM, triplicate (Table 15, FIG. 8)) was 2.86 ± 1.48 and the “increase in ASS1 gene expression (Tables 15, 16, FIG. 7, 8)” value (ASS1; [9]) was “greatest increase”. The “number of urea cycle genes whose expression was significantly up-regulated” value (urea cycle genes) was “three”, the “Up-regulated Genes” value (urea cycle genes; urea cycle-related genes significantly increased (Table 10)) was “CPS1, ASL, ARG1” and the “Relative ASL level vs Untreated (±Standard Deviation)” value (ASL; 0.3 uM, primary human hepatocytes) was 3.02 ± 0.25. The “Relative ASL level vs Untreated (±Standard Deviation)” value (ASL; 1 uM, primary human hepatocytes) was 7.50 ± 1.10, the “Relative ASL level vs Untreated (±Standard Deviation)” value (ASL; 3 uM, primary human hepatocytes) was 11.42 ± 6.31 and the “Relative ASL level vs Untreated (±Standard Deviation)” value (ASL; 10 uM, primary human hepatocytes) was 12.28 ± 4.98. For the same compound, the “increase in ASL gene expression (Table 25, FIG. 17)” value (ASL; [9]) was “greatest increase” and the “ASL expression, Fold change (Log 2) vs untreated” value (ASL; [10]) was 0.58 Log 2.

With “STAT1 (DNA NATTTCCNGGAAAT; target site or template, no part of the molecule; chemistry not given here)” the “OTC expression after knockdown in combination with JAK1” value (OTC [3]) was “increased”.

With oclacitinib maleate the “CPS1 mRNA FC, Donor A” value (CPS1 [4]; 0.1 uM) was 1.61, the “CPS1 mRNA FC, Donor B” value (CPS1 [4]; 0.1 uM) was 4.60 and the “CPS1 mRNA FC, Donor A” value (CPS1 [4]; 0.3 uM) was 2.37. The “CPS1 mRNA FC, Donor B” value (CPS1 [4]; 0.3 uM) was 4.50, the “CPS1 mRNA FC, Donor A” value (CPS1 [4]; 1 uM) was 3.12 and the “CPS1 mRNA FC, Donor B” value (CPS1 [4]; 1 uM) was 3.34. For the same compound, the “CPS1 mRNA FC, Donor A” value (CPS1 [4]; 3 uM) was 4.82, the “CPS1 mRNA FC, Donor B” value (CPS1 [4]; 3 uM) was 2.57 and the “CPS1 mRNA FC, Donor A” value (CPS1 [4]; 10 uM) was 5.99. The “CPS1 mRNA FC, Donor B” value (CPS1 [4]; 10 uM) was 1.90, the “CPS1 mRNA expression, dose titration” value (CPS1 [4]; [11]) was “dose dependent increase” and the “OTC mRNA FC, Donor A” value (OTC [5]; 0.1 uM) was 1.97. For the same compound, the “OTC mRNA FC, Donor B” value (OTC [5]; 0.1 uM) was 2.46, the “OTC mRNA FC, Donor A” value (OTC [5]; 0.3 uM) was 2.76 and the “OTC mRNA FC, Donor B” value (OTC [5]; 0.3 uM) was 4.28. For the same compound, the “OTC mRNA FC, Donor A” value (OTC [5]; 1 uM) was 4.79, the “OTC mRNA FC, Donor B” value (OTC [5]; 1 uM) was 5.97 and the “OTC mRNA FC, Donor A” value (OTC [5]; 3 uM) was 8.92. The “OTC mRNA FC, Donor B” value (OTC [5]; 3 uM) was 11.00, the “OTC mRNA FC, Donor A” value (OTC [5]; 10 uM) was 11.65 and the “OTC mRNA FC, Donor B” value (OTC [5]; 10 uM) was 11.46. For the same compound, the “OTC mRNA expression, dose titration” value (OTC [5]; [11]) was “dose dependent increase”, the “OTC mRNA FC” value (OTC [6]; 0.3 uM) was 1.32 and the “OTC mRNA FC” value (OTC [6]; 3 uM) was 3.14. The “newly accessible chromatin domain upstream of the OTC gene (ATAC-seq)” value [7] was “newly accessible chromatin domain”, the “CPS1 mRNA FC” value (CPS1 [8]; 0.3 uM) was 1 and the “CPS1 mRNA FC” value (CPS1 [8]; 3 uM) was 1.69.

From US11266655B2, “Methods and compositions for treating urea cycle disorders” (Camp4 Therapeutics Corporation, priority 2019, dated 2022)
